Measured values as given in patent US10238670B2, “9-aminomethyl minocycline compounds and methods of use thereof in urinary tract infection (UTI) treatment” (Paratek Pharmaceuticals, Inc., priority 2016, dated 2019).
Read-outs that look alike come from different tables or passages of the source.

Experiment: Phase 1b study in female adults with cystitis, plasma PK
Type: in vivo, human
Conditions: for Cmax / AUC(0-t) / Tmax / AUC(0-inf) / half-life / concentration at 5 day: plasma
Description: According to the study design, a randomized (1:1:1), open-label, parallel designed Phase 1b study comparing 3 dosing regimens of Compound 1 (9-[(2,2-dimethyl-propyl amino)-methyl-minocycline) in the treatment of female adults with cystitis was conducted. About 31 female patients with uncomplicated urinary tract infection (cystitis) who met inclusion and exclusion criteria were enrolled at 2-4 U.S. treatment centers. All enrolled subjects participated in the study for approximately 5-6 weeks. Following Screening of up to 48 hrs, eligible subjects were randomly assigned to receive one of 3 dosing regimens of Compound 1 treatment as shown below. Subjects in all treatment groups were domiciled for a 5-day treatment period. Details of the study are further described below.
Subjects were randomized (1:1:1) to one of the following treatment arms: • 1. Group 1: IV load, p.o. daily (200 mg Compound 1 IV every 24 hours (q24h) for 1 dose, followed by 300 mg p.o. q24h for a total of 5 days); • 2. Group 2: p.o. load, p.o. daily (300 mg Compound 1 p.o. every 12 hours (q12h) for 2 doses, followed by 300 mg p.o. q24h for a total of 5 days); • 3. Group 3: high p.o. load, high p.o. daily (450 mg Compound 1 p.o. q12h for 2 doses, followed by 450 mg p.o. q24h for a total of 5 days).
Blood samples were collected and analyzed for Compound 1 concentration at the following times. Pre-dose blood PK evaluations were based on blood samples collected within 10 min of each start (e.g., t=0 h dose for Day 1, t=24 h dose for Day 2, etc.). • Day 1: Pre-dose, and 0.75, 1, 2, 3, 4, 6, 8 and 12 hours after the t=0 h dose (12 h sample before the t=12 h dose for Groups 2 and 3); • Day 2: prior to the t=24 h dose; • Day 3: prior to the t=48 h dose; • Day 4: prior to the t=72 h dose; • Day 5: Pre-dose, and 0.5, 1, 2, 3, 4, 6, 8 and 12 hours after the t=96 h dose • Day 6: at t=120 h (24 hours after the t=96 h dose on Day 5)
Following the final oral doses on Day 5 the Compound 1 plasma concentration-time data for Groups 1, 2 and 3 were used to determine Cmax, Tmax, AUC24h, AUCt. Trough plasma concentrations (Ctrough) following each dose (Days 2 to 6) were also determined.
Blood samples for PK are collected at the time points specified below. • Day 1: Predose, and 0.75, 1, 2, 3, 4, 6, 8 and 12 hours after the t=0 h dose (12 h sample before the t=12 h dose for Groups 2 and 3); • Day 2: prior to the t=24 h dose; • Day 3: prior to the t=48 h dose; • Day 4: prior to the t=72 h dose; • Day 5: Predose, and 0.5, 1, 2, 3, 4, 6, 8 and 12 hours after the t=96 h dose • Day 6: at t=120 h (24 hours after the t=96 h dose on Day 5)
Blood was collected either by fresh venipuncture or via a cannula used solely for that purpose. The dates and times for all doses of test article and PK sample collections were recorded. For intravenously administered doses of test article, the start and stop times for each infusion were recorded. Immediately after the sample was collected, the tube was gently inverted 5 to 8 times to thoroughly mix the anticoagulant and then placed upright in a cryoblock or test tube rack surrounded by ice until centrifugation. Samples were centrifuged at 1500×g for 10 minutes at approximately 4° C. within 30 minutes of collection. The resultant plasma was divided into 2 equal aliquots, placed in individual cryovials, and immediately frozen at −20° C. or colder within 1 hour of collection. The samples were kept frozen at −20° C. or colder pending shipment to the bioanalytical laboratory.
The Compound 1 plasma concentration data was listed and summarized by time point and treatment group. The following PK parameters were estimated from the Compound 1 plasma concentration-time data: […]

[1] = Day 1, 300 mg po (n = 10), mean
[2] = Day 5, 300 mg po (n = 10), mean

CN(C)c1cc(CNCC(C)(C)C)c(O)c2c1C[C@H]1C[C@H]3[C@H](N(C)C)C(O)=C(C(N)=O)C(=O)[C@@]3(O)C(O)=C1C2=O [Compound 1, 9-[(2,2-dimethyl-propylamino)-methyl]-minocycline]
AUC0-12 [1]: 6260 ng·h/mL
Cmax [1]: 880 ng/mL
Cmin (Day 5, 200 mg IV, 300 mg po (n = 11), mean): 290 ng/mL
AUC0-24 [2]: 13500 ng·h/mL
Cmin [2]: 320 ng/mL
Cmin (Day 5, 450 mg po (n = 10), mean): 480 ng/mL
AUC(0-t) (female, human, intravenous, 200 mg, Day 1, 200 mg IV, 300 mg po (n = 11), mean, read-out: AUC0-24): 16000 ng·h/mL
Tmax (female, human, intravenous, 200 mg, Day 1, 200 mg IV, 300 mg po (n = 11), median, read-out: tmax): 0.75 h
Cmax (female, human, intravenous, 200 mg, Day 1, 200 mg IV, 300 mg po (n = 11), mean, read-out: Cmax): 2160 ng/mL
AUC(0-t) (female, human, intravenous, 200 mg, Day 1, IV_PO300, read-out: AUC(0-24 hrs), Geo. Mean): 15600 ng·h/mL
AUC(0-t) (female, human, intravenous, 200 mg, Day 1, IV_PO300, read-out: AUC(0-24 hrs), Mean): 16000 ng·h/mL
AUC(0-t) (female, human, intravenous, 200 mg, Day 1, IV_PO300, read-out: AUC(0-24 hrs), Median): 14800 ng·h/mL
AUC(0-inf) (female, human, intravenous, 200 mg, Day 1, IV_PO300, read-out: AUC(0-inf), Geo. Mean): 19700 ng·h/mL
AUC(0-inf) (female, human, intravenous, 200 mg, Day 1, IV_PO300, read-out: AUC(0-inf), Mean): 19900 ng·h/mL
AUC(0-inf) (female, human, intravenous, 200 mg, Day 1, IV_PO300, read-out: AUC(0-inf), Median): 19300 ng·h/mL
Cmax (female, human, intravenous, 200 mg, Day 1, IV_PO300, read-out: Cmax, Geo. Mean): 1960 ng/mL
Cmax (female, human, intravenous, 200 mg, Day 1, IV_PO300, read-out: Cmax, Mean): 2160 ng/mL
Cmax (female, human, intravenous, 200 mg, Day 1, IV_PO300, read-out: Cmax, Median): 1850 ng/mL
Tmax (female, human, intravenous, 200 mg, Day 1, IV_PO300, read-out: Tmax, Geo. Mean): 0.869 h
Tmax (female, human, intravenous, 200 mg, Day 1, IV_PO300, read-out: Tmax, Mean): 0.897 h
Tmax (female, human, intravenous, 200 mg, Day 1, IV_PO300, read-out: Tmax, Median): 0.75 h
half-life (female, human, intravenous, 200 mg, Day 1, IV_PO300, read-out: T½, Geo. Mean (converted)): 11.3 h
half-life (female, human, intravenous, 200 mg, Day 1, IV_PO300, read-out: T½, Mean (converted)): 11.4 h
half-life (female, human, intravenous, 200 mg, Day 1, IV_PO300, read-out: T½, Median (converted)): 11.5 h
AUC(0-t) (female, human, oral, 300 mg, Day 5, 200 mg IV, 300 mg po (n = 11), mean, read-out: AUC0-24): 13200 ng·h/mL
Cmax (female, human, oral, 300 mg, Day 5, 200 mg IV, 300 mg po (n = 11), mean, read-out: Cmax): 1120 ng/mL
Tmax (female, human, oral, 300 mg, Day 5, 200 mg IV, 300 mg po (n = 11), median, read-out: tmax): 3 h
AUC(0-t) (female, human, oral, 300 mg, Day 1, PO300, read-out: AUC(0-12 hrs), Geo. Mean): 6150 ng·h/mL
AUC(0-t) (female, human, oral, 300 mg, Day 1, PO300, read-out: AUC(0-12 hrs), Mean): 6260 ng·h/mL
AUC(0-t) (female, human, oral, 300 mg, Day 1, PO300, read-out: AUC(0-12 hrs), Median): 6520 ng·h/mL
Cmax (female, human, oral, 300 mg, Day 1, PO300, read-out: Cmax, Geo. Mean): 849 ng/mL
Cmax (female, human, oral, 300 mg, Day 1, PO300, read-out: Cmax, Mean): 877 ng/mL
Cmax (female, human, oral, 300 mg, Day 1, PO300, read-out: Cmax, Median): 916 ng/mL
Tmax (female, human, oral, 300 mg, Day 1, PO300, read-out: Tmax, Geo. Mean): 2.96 h
Tmax (female, human, oral, 300 mg, Day 1, PO300, read-out: Tmax, Mean): 2.99 h
Tmax (female, human, oral, 300 mg, Day 1, PO300, read-out: Tmax, Median): 3 h
AUC(0-t) (female, human, oral, 300 mg, Day 5, IV_PO300, read-out: AUC(0-24 hrs), Geo. Mean): 9550 ng·h/mL
AUC(0-t) (female, human, oral, 300 mg, Day 5, IV_PO300, read-out: AUC(0-24 hrs), Mean): 13200 ng·h/mL
AUC(0-t) (female, human, oral, 300 mg, Day 5, IV_PO300, read-out: AUC(0-24 hrs), Median): 15800 ng·h/mL
Cmax (female, human, oral, 300 mg, Day 5, IV_PO300, read-out: Cmax, Geo. Mean): 808 ng/mL
Cmax (female, human, oral, 300 mg, Day 5, IV_PO300, read-out: Cmax, Mean): 1120 ng/mL
Cmax (female, human, oral, 300 mg, Day 5, IV_PO300, read-out: Cmax, Median): 1300 ng/mL
concentration at 5 day (female, human, oral, 300 mg, Day 5, IV_PO300, read-out: Ctrough, Geo. Mean): 214 ng/mL
concentration at 5 day (female, human, oral, 300 mg, Day 5, IV_PO300, read-out: Ctrough, Mean): 292 ng/mL
concentration at 5 day (female, human, oral, 300 mg, Day 5, IV_PO300, read-out: Ctrough, Median): 378 ng/mL
Tmax (female, human, oral, 300 mg, Day 5, IV_PO300, read-out: Tmax, Geo. Mean): 2.83 h
Tmax (female, human, oral, 300 mg, Day 5, IV_PO300, read-out: Tmax, Mean): 2.6 h
Tmax (female, human, oral, 300 mg, Day 5, IV_PO300, read-out: Tmax, Median): 3 h
half-life (female, human, oral, 300 mg, Day 5, IV_PO300, read-out: T½, Geo. Mean (converted)): 13.2 h
